In ChEMBL document CHEMBL1135040, “[(3)H]-M-MPEP, a potent, subtype-selective radioligand for the metabotropic glutamate receptor subtype 5” (Bioorg Med Chem Lett, 2002):

Experiments:
[1] = biological target: T1, Metabotropic glutamate receptor 5 (Homo sapiens, UniProt P41594); experiment: Tested in vitro binding affinity for displacement of [3H]M-MPEP from membrane of L(-tk) cells expressing the Metabotropic glutamate receptor 5, activity expressed as IC50
[2] = biological target: T1, Metabotropic glutamate receptor 5; experiment: In vitro for inhibitory activity of compound against recombinant Metabotropic glutamate receptor 5 evaluated as inhibition of quisqualate-stimulated phosphoinositide (PI) hydrolysis; type: functional

T1 sequence (P41594 whole entry): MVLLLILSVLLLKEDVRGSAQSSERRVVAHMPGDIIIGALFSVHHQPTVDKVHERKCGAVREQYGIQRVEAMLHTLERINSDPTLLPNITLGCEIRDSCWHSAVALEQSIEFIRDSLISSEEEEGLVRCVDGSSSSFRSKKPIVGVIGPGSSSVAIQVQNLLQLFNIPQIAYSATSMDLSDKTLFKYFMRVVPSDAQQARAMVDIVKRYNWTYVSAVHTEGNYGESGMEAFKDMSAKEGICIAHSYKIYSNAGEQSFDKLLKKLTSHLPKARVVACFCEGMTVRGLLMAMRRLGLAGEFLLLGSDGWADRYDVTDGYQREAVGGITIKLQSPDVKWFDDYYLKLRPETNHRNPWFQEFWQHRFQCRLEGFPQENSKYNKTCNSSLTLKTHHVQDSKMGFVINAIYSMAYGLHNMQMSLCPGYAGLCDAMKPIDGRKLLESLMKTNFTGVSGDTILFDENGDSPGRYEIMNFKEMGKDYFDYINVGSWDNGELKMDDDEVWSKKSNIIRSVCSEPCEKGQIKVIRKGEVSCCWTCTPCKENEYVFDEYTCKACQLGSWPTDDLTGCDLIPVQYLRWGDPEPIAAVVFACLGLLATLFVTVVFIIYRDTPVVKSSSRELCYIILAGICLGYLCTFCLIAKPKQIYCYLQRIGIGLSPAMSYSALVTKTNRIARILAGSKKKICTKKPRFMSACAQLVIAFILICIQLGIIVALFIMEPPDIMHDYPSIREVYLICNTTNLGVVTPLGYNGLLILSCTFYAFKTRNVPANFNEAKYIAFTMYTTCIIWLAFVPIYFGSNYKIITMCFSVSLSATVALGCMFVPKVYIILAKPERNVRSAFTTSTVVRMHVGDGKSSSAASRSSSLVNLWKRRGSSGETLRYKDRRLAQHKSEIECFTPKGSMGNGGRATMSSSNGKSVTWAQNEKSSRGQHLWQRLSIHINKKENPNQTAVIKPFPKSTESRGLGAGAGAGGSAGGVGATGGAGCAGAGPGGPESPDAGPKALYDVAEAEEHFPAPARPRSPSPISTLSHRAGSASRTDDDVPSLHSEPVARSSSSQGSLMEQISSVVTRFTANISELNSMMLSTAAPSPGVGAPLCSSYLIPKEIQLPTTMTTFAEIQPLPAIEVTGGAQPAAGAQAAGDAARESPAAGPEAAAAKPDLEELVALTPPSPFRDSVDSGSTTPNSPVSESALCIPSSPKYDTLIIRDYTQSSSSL

Row | IC50 [1] | IC50 [2] | SMILES
1 | 3.6 nM | 10 nM | [3H]C([3H])([3H])OCc1cccc(C#Cc2cccc(C)n2)c1
2 | 1100 nM | 3000 nM | Cc1cccc(/C=C/c2ccccc2)n1
